Source: PMC10652874, “Investigation into the mechanism of action of the antimicrobial peptide epilancin 15X” (Frontiers in Microbiology, 2023)

Test system: S. carnosus TM300
Test: RNAseq differential gene expression
Assay type: cell-based, Staphylococcus carnosus
Procedure: For the RNAseq experiments, epilancin was added at sub-lethal concentration (0.5x MIC) to S. carnosus TM300 once the cultures reached an OD600 of 0.6. RNA was extracted 40 min after the treatment, using a FastRNA Pro Blue kit (MP Biomedicals). Both treated and parallel untreated samples were collected at the same time. Sequencing was performed at the Carver Biotechnology Center (UIUC). For RNAseq analysis, gene counts were read in to R (v3.1.1; [Team, 2014]), and 14/2441 genes were removed because they had fewer than 32 total counts across the six samples. edgeR’s (v3.6.7) TMM normalization ([Robinson and Oshlack, 2010]) plus negative binomial generalized log-linear model ([McCarthy et al., 2012]) was used to test for differential expression between treated and untreated groups, while accounting for pairing of U and T replicates from three different cultures. p-values were adjusted using the false discovery rate method ([Benjamini and Hochberg, 1995]).

[1] = putative ABC transporter ATP-binding protein
[2] = putative short chain dehydrogenase
[3] = putative transcriptional regulator

## Epilancin 15X
molybdopterin-guanine dinucleotide biosynthesis protein MobA
  fold_change mobA: 2.6
mutT/nudix family protein
  fold_change mutT: 5.15
Phage integrase
  fold_change int: 3.38
Phosphate transporter ATP-binding protein
  fold_change pstB: 3.4
phosphopentomutase, gene drm
  fold_change deoB: 2.75
Poly D-alanine transfer protein
  fold_change dltD: 2.08
proline/betaine transporter
  fold_change proP: 2.73
Putative 2-keto-4-pentenoate hydratase
  fold_change Sca_0040: 2.87
Putative 3-methyladenine DNA glycosylase
  fold_change Sca_1843: 2.27
[1]
  fold_change Sca_0458: 3.16
  fold_change Sca_2242: 2.55
Putative ABC transporter permease
  fold_change Sca_1033: 3.26
Putative ABC-type cobalt transport system ATPase
  fold_change Sca_0699: 2.62
Putative ATP-dependent Clp proteinase chain clpL
  fold_change clpL: 7.83
Putative ATP-dependent helicase
  fold_change Sca_0398: 3.32
Putative ComK family protein
  fold_change Sca_0642: 2.73
Putative CorA-like Mg2+ transporter protein
  fold_change Sca_2395: 2.01
Putative DNA repair protein RadC, gene radC
  fold_change Sca_1264: 12.09
Putative FeS assembly protein SufB
  fold_change sufB: 3.43
Putative HNH family endonuclease, phage associated
  fold_change Sca_0476: 4.35
Putative IstB-like ATP-binding protein, phage associated
  fold_change Sca_0479: 3.51
Putative L-serine dehydratase subunit beta
  fold_change sdaB: 3.71
Putative L-serine dehydratase, iron-sulfur-dependent subunit alpha
  fold_change sdaA: 2.95
Putative MerR family transcriptional regulator
  fold_change Sca_0539: 2.12
Putative N-acetyltransferase
  fold_change Sca_0093: 2.6
Putative NAD(P)H-flavin oxidoreductase
  fold_change Sca_1976: 5.31
Putative NADH-flavin reductase
  fold_change Sca_0831: 4.42
Putative NADP-dependent oxidoreductase
  fold_change Sca_1692: 5.86
Putative NADPH oxidoreductase
  fold_change Sca_1977: 5.07
Putative Na(+)/H(+) antiporter subunit G
  fold_change Sca_2123: 2.16
Putative PTS system, IIBC components
  fold_change Sca_2138: 2.3
Putative RpiR family transcriptional regulator
  fold_change Sca_2137: 2.96
Putative Tat-translocated protein
  fold_change Sca_2214: 3.14
Putative acetoacetate decarboxylase
  fold_change adc: 2.51
Putative acid-CoA ligase
  fold_change fadE: 2.21
Putative alcohol dehydrogenase
  fold_change adhC: 2.53
Putative alcohol dehydrogenase, zinc-containing
  fold_change Sca_2013: 3.05
Putative aldehyde dehydrogenase
  fold_change aldH: 0.49
Putative aldehyde dehydrogenase family protein
  fold_change Sca_1625: 2.65
Putative alkaline shock protein
  fold_change Sca_1685: 4.53
Putative alpha-acetolactate decarboxylase
  fold_change Sca_1958: 4.48
Putative alpha/beta fold family hydrolase
  fold_change Sca_0638: 2.8
Putative alpha/beta hydrolase superfamily protein
  fold_change Sca_0872: 3.04
Putative amidohydrolase
  fold_change Sca_0567: 2.54
Putative amidophosphoribosyltransferase
  fold_change Sca_0399: 3.6
Putative amino acid transporter
  fold_change Sca_2120: 0.49
Putative antibiotic transport-associated protein
  fold_change Sca_2151: 2.04
Putative antirepressor, phage associated
  fold_change Sca_0467: 4.9
Putative branched-chain amino acid carrier
  fold_change brnQ: 0.5
Putative catalase
  fold_change katE/B: 5.7
Putative cation exporting ATPase
  fold_change Sca_0538: 5
Putative cation-efflux system membrane protein
  fold_change czrB: 9.3
Putative cell wall-anchored protein
  fold_change Sca_0867: 2.34
Putative cobalt transport system permease
  fold_change Sca_0698: 2.09
Putative copper-transporting P-type ATPase
  fold_change copA: 2.32
Putative cytochrome D ubiquinol oxidase subunit I
  fold_change Sca_0707: 2.66
Putative cytochrome D ubiquinol oxidase subunit II
  fold_change Sca_0708: 3.72
Putative dUTP pyrophosphatase, phage associated
  fold_change dut: 3.34
Putative dioxygenase
  fold_change Sca_2298: 4.81
Putative effector domain of transcriptional regulator
  fold_change Sca_0871: 3.63
Putative esterase of the alpha-beta hydrolase superfamily
  fold_change Sca_0099: 2.92
Putative formamidase
  fold_change fmdA: 5.66
Putative general stress protein
  fold_change Sca_1468: 2.39
Putative glycerate kinase
  fold_change Sca_0390: 2.11
Putative glycerophosphoryl diester phosphodiesterase
  fold_change Sca_1327: 2.21
Putative glycine betaine/carnitine/choline transport system permease
  fold_change opuCB: 2.02
Putative glycosyl transferase
  fold_change Sca_0056: 2.07
Putative glyoxylase family protein
  fold_change Sca_1969: 4.21
Putative heat-inducible transcriptional repressor
  fold_change hrcA: 3.08
Putative holin-like protein LrgA
  fold_change lrgA: 3.61
Putative holliday junction resolvase, phage associated
  fold_change Sca_0480: 3.23
Putative indole-3-pyruvate decarboxylase
  fold_change Sca_2166: 2.06
Putative intracellular protease/amidase
  fold_change Sca_0081: 5.75
Putative mannose-6-phosphate isomerase
  fold_change Sca_1648: 0.5
Putative membrane-bound sulfatase
  fold_change Sca_0366: 2.62
Putative methylated DNA-protein cysteine methyltransferase
  fold_change adaB: 2.26
Putative monovalent cation/H+ antiporter subunit A
  fold_change Sca_2129: 3.98
Putative monovalent cation/H+ antiporter subunit B
  fold_change Sca_2128: 2.49
Putative monovalent cation/H+ antiporter subunit C
  fold_change Sca_2127: 2.24
Putative monovalent cation/H+ antiporter subunit D
  fold_change Sca_2126: 2.35
Putative monovalent cation/H+ antiporter subunit E
  fold_change Sca_2125: 2.21
Putative monovalent cation/H+ antiporter subunit F
  fold_change Sca_2124: 2.43
Putative nitroreductase
  fold_change Sca_0449: 2.26
Putative oxidoreductase protein
  fold_change mocA: 5.88
Putative peptidase
  fold_change Sca_0684: 2.13
Putative peptidase (peptidase family M20/M25/M40)
  fold_change Sca_1042: 0.49
Putative phage integrase family protein
  fold_change Sca_2130: 8.35
Putative phosphate ABC transporter permease
  fold_change pstA: 3.6
Putative phosphate transport system substrate-binding protein
  fold_change Sca_1034: 3.27
Putative phosphate uptake regulator protein
  fold_change Sca_1030: 3.27
Putative phospholipase/carboxylesterase
  fold_change Sca_0075: 3.41
Putative purine regulatory protein
  fold_change Sca_0147: 2.18
Putative pyrimidine nucleoside phosphorylase
  fold_change pdp: 2.55
Putative repressor protein
  fold_change czrA: 8.56
Putative response regulator
  fold_change vraR: 8.62
Putative ribosome-associated protein
  fold_change Sca_0400: 2.26
Putative selenocysteine lyase
  fold_change csdB: 3.29
[2]
  fold_change Sca_1824: 2.61
  fold_change Sca_2218: 3.36
  fold_change Sca_2233: 2.35
Putative site-specific recombinase XerD
  fold_change xerD: 2.53
Putative sugar phosphate isomerase
  fold_change Sca_0225: 3.01
Putative thioredoxine reductase
  fold_change trxB: 2.17
Putative transcription activator of glutamate synthase operon
  fold_change gltC: 2.32
Putative transcription regulator MarR family
  fold_change Sca_1970: 3.81
Putative transcriptional activator TenA
  fold_change Sca_2227: 2.88
[3]
  fold_change Sca_0070: 5.38
  fold_change Sca_2381: 3.42
Putative transmembrane protein
  fold_change Sca_1791: 8.45
Putative transport protein
  fold_change Sca_1822: 0.49
Putative two-component response regulator
  fold_change Sca_1423: 0.49
Quinolone resistance protein NorA
  fold_change norA: 2.56
Regulatory protein SpoVG
  fold_change spoVG: 2.18
Ribonuclease P
  fold_change rnpA: 2.02
Ribosomal protein L11 methyltransferase, gene SCA_1200
  fold_change prmA: 2.07
Secretory antigen SsaA
  fold_change Sca_0809: 2.03
sodium:alanine symporter family protein
  fold_change Sca_0615: 3.14
succinate-semialdehyde dehydrogenase (NADP+), gene gabD
  fold_change Sca_2363: 2.52
tRNA (uracil-5-)-methyltransferase Gid, gene gid
  fold_change trmFO: 2.02
Thymidine kinase
  fold_change tdk: 0.49
Transcription regulator Fur family
  fold_change perR: 2.27
Transcription repressor of class III stress genes
  fold_change ctsR: 5.22
Transport system binding protein
  fold_change Sca_0964: 3.98
type-1 signal peptidase 1B
  fold_change sipB: 2.45
type-I signal peptidase
  fold_change sipA: 2.68
